# Columns and labels:
# [1] = system: Phospholipase C; details: cited from earlier work
# [2] = system: LCE; experiment: Influence of enzyme inhibitors or activators on LCE activity, CEM-SS membrane fraction; type: biochemical; details: LCE Membranfraktion CEM-SS
# Method: (§1) Das Pipettierschema ist in der folgenden Tabelle angegeben. Tabelle
# (§2) Zur Untersuchung der enzymatischen Spaltung in Abhängigkeit von der Substratkonzentration wurde eine Substratstammlösung von 0.98 nmol [^14C]-AZT-DMDOPE und 0.7 nmol AZT-DMDOPE/80 µl Aqua bidest. im LCE-Assay angesetzt. Die verschiedenen Substratkonzentrationen im LCE-Assay wurden durch kontinuierliche Verdopplung bzw. Halbierung des Volumens an Substratlösung eingestellt. Die Ansätze wurden in Glasröhrchen (5 ml) vorgelegt und durch Zugabe der Substratlösung gestartet. Die Inkubation wurde bei 37 °C im Wasserbad unter leichtem Schütteln durchgeführt.
# Die Reaktionsansätze des LCE-Assays wurden nach entsprechender Inkubationszeit dem Wasserbad entnommen, und die Reaktion durch Zugabe von 750 µl 2-Propanol gestoppt. Nach gründlicher Durchmischung wurden die Ansätze anschließend mit 700 µl auf Raumtemperatur erwärmtem n-Heptan versetzt. Die Ansätze wurden erneut für 30 sec gut gemischt und zur Beschleunigung der Phasentrennung in der Minifuge T bei 3200 rpm für 15 min bei Raumtemperatur zentrifugiert. Anschließend wurden 500 µl der oberen Phase (n-Heptan) entnommen und in neue Glasröhrchen (5 ml) mit 10 mg Kieselgel 60 H und 200 µl n-Heptan überführt. Die Ansätze wurden für 30 sec gut durchmischt und zur Sedimentation des Kieselgels für 10 min unter oben genannten Bedingungen zentrifugiert. […]
# [3] = system: LCE; experiment: Influence of enzyme inhibitors or activators on LCE activity, kidney membrane fraction; type: biochemical, Balb/c; details: LCE Membranfraktion Niere (Balb/c)
# Method: as §1, §2
# Die Reaktionsansätze des LCE-Assays wurden nach entsprechender Inkubationszeit dem Wasserbad entnommen, und die Reaktion durch Zugabe von 750 µl 2-Propanol gestoppt. Nach gründlicher Durchmischung wurden die Ansätze anschließend mit 700 µl auf Raumtemperatur erwärmtem n-Heptan versetzt. Die Ansätze wurden erneut für 30 sec gut gemischt und zur Beschleunigung der Phasentrennung in der Minifuge T bei 3200 rpm für 15 min bei Raumtemperatur zentrifugiert. Anschließend wurden 500 µl der oberen Phase (n-Heptan) entnommen und in neue Glasröhrchen (5 ml) mit 10 mg Kieselgel 60 H und 200 µl n-Heptan überführt. Die Ansätze wurden für 30 sec gut durchmischt und zur Sedimentation des Kieselgels für 10 min unter oben genannten Bedingungen zentrifugiert. Vom Überstand wurden anschließend 500 µl entnommen und mit 3 ml Szintillationsflüssigkeit versetzt. Die Messung der Radioaktivität erfolgte für 4 min im Flüssigkeits-Szintillations-Analysator. Zur Bestimmung des Absolutwertes an Radioaktivität wurden 200 µl der Substratlösung mit 3 ml Szintillationsflüssigkeit versetzt und unter gleichen Bedingungen im Flüssigkeits-Szintillations-Analysator gemessen.
# [4] = system: LCE; experiment: Effect of phospholipase C/D inhibitors and activators on LCE as stated in the description; type: biochemical
structure (smiles),measurement,setting,value
"S=C(S)OC1CC2CC1C1CCCC21 (stereo not shown) [D 609, Tricyclodecan-9-yl-xanthogenat]",Einfluß auf Phospholipase C,[1],inhibiert
same,Einfluß auf LCE-Aktivität,[2],Stimulation Stimulation
same,Einfluß auf LCE-Aktivität,[3],Stimulation Stimulation
same,Einfluß auf LCE (Hemmung/Aktivierung),[4],aktiviert
